Results as given in patent US20230182351A1, “ANTI-MICROBIAL ADDITIVE AND PROPERTIES TO FOAM TO PREVENT MOLD” (LEAR CORPORATION, priority 2021, published 2023).

Tested on: bacterial and fungal growth
Experiment: Antimicrobial tests summarized in Table 1 (JIS Z 2801, ASTM G-21)
Format: cell-based
Conditions: in polyurethane foam, amount systematically varied
Method: Two polyurethane sample families were prepared. The amount of the liquid antimicrobial agent N-butyl-1,2-benzisothiazolin-3-one was systematically varied. It is pointed out that he JIS Z 2801 method test is an industry standard for testing the ability of a surface to inhibit the growth of microorganisms. ASTM G-21 is a test for fungal resistance test

## CCCCn1sc2ccccc2c1=O [N-butyl-1,2-benzisothiazolin-3-one]
  inhibition of bacterial and fungal growth: significant inhibition
